# Laboratory results: US20060135480A1, “Derivatives of succinic and glutaric acids and analogs thereof useful as inhibitors of phex” (Enobia Pharma, priority 2002, published 2006)
# Molecular target: T1, sPHEX (Homo sapiens, UniProt P78562)
# T1 construct: The soluble form of the metallopeptidase PHEX (sPHEX) was purified to homogeneity; made in house
# T1 sequence (P78562 53-749 limits assumed): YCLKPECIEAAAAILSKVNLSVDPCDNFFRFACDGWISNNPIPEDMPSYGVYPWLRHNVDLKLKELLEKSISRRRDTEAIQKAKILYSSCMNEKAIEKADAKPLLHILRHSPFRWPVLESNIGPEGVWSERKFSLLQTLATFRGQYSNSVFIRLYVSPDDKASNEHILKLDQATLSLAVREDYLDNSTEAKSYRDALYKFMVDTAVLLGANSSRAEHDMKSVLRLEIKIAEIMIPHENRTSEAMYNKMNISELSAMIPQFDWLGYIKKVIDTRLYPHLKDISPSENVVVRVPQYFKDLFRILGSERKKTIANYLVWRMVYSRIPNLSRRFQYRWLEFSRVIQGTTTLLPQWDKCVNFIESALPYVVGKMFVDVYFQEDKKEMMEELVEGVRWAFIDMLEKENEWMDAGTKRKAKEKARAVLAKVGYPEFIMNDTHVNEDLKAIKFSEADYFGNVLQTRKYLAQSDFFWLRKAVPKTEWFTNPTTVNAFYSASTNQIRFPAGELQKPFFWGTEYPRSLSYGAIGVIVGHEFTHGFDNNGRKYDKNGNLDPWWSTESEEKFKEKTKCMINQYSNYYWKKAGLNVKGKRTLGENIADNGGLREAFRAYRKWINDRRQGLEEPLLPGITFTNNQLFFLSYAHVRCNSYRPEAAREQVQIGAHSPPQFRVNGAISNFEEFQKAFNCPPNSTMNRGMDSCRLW
# Test: sPHEX inhibitor IC50 determination using a fluorogenic substrate (Abz-GFSDYK-Dnp, S3)
# Format: biochemical
# Conditions: fluorogenic substrate 20 μM, 100 ng sPHEX, pH 6.5
# Protocol: The soluble form of the metallopeptidase PHEX (sPHEX) was purified to homogeneity according to the methods of Boileau and Crine (WO 00/50580). sPHEX quantity was measured with the Bradford assay (BioRad) using BSA as a standard.
# sPHEX activity was determined using a fluorogenic substrate in which an increase of fluorescence was proportional to substrate conversion to products.
# S3 was synthesized at Dr. Gilles Lajoie's laboratories (University of Western Ontario, Canada) by standard solid phase peptide synthesis. The fluorescent reaction product was excited at 320 nm to fluoresce at 420 nm. Fluorescence was recorded at 420 nm every five minutes over a one-hour period on a fluorescence plate reader (Perkin-Elmer, HTS-7000) to calculate the initial rate of the reaction. Typically, the reaction was carried out in 200 μl of buffer M (50 mM Mes(NaOH) pH 6.5, 150 mM NaCl) containing 100 ng of purified sPHEX and 20 μM of fluorigenic substrate to initiate the reaction. Enzymatic activity was determined by subtracting either the initial rate of substrate in buffer (solvolysis), or the typical reaction rate in which 5 mM EDTA was added prior to initiating the reaction.
# sPHEX inhibitor IC50 determinations were done using the tested inhibitor at various concentrations coming from a serial dilution (usually ranging from 10^−3 M to 10^−12 M) in the reaction described above. IC50 values were calculated using the iterative four parameters non-linear regression formula from the GraphPad™ software (Prism).
row,Structure (SMILES),IC50 [nM]
1,"C[C@H](S)C(=O)N[C@@H](CC(=O)O)C(=O)N[C@@H](Cc1c[nH]c2ccccc12)C(=O)O [Example 90, N-[1-Carboxy-2-(1H-indol-3-yl)-ethyl]-3-(2-mercapto-propionylamino)-succinamic acid]",68
2,"O=C(O)C[C@H](NC(=O)[C@@H](S)c1ccccc1)C(=O)N[C@@H](Cc1c[nH]c2ccccc12)C(=O)O [Example 97, N-[1-Carboxy-2-(1H-indol-3-yl)-ethyl]-3-(2-mercapto-2-phenyl-acetylamino)-succinamic acid]",3
3,"CC(C)C[C@H](S)C(=O)N[C@@H](CC(=O)O)C(=O)N[C@@H](Cc1c[nH]c2ccccc12)C(=O)O [Example 91, N-[1-Carboxy-2-(1H-indol-3-yl)-ethyl]-3-(2-mercapto-4-methyl-pentanoylamino)-succinamic acid]",94
4,"O=C(O)C[C@H](NC(=O)[C@@H](S)CCc1ccccc1)C(=O)N[C@@H](Cc1c[nH]c2ccccc12)C(=O)O [Example 96, N-[1-Carboxy-2-(1H-indol-3-yl)-ethyl]-3-(2-mercapto-4-phenyl-butyrylamino)-succinamic acid]",4
5,"O=C(O)C[C@H](NC(=O)[C@@H](S)Cc1ccccc1)C(=O)N[C@@H](Cc1c[nH]c2ccccc12)C(=O)O [Example 89, N-[1-Carboxy-2-(1H-indol-3-yl)-ethyl]-3-(2-mercapto-3-phenyl-propionylamino)-succinamic acid]",11
6,"O=C(O)CC(CC(=O)NO)C(=O)NCc1ccc(-c2ccccc2)cc1 (stereo not shown) [Example 150, 3-[(Biphenyl-4-ylmethyl)-carbamoyl]-4-hydroxycarbamoyl-butyric acid]",270
7,"O=C(O)C[C@H](NC(=O)[C@@H](S)Cc1ccccc1)C(=O)N[C@H](CO)Cc1ccccc1 [Example 111, N-(1-Benzyl-2-hydroxy-ethyl)-3-(2-mercapto-3-phenyl-propionylamino)-succinamic acid]",90
8,"COC(=O)[C@H](Cc1c[nH]c2ccccc12)NC(=O)[C@H](CC(=O)O)NC(=O)CS [Example 117, N-[2-(1H-indol-3-yl)-methoxycarbonyl-etjyl]-3-(2-mercapto-acetylamino)-succinamic acid]",2600
9,"O=C(O)C[C@H](NC(=O)CS)C(=O)N[C@@H](Cc1c[nH]c2ccccc12)C(=O)O [Example 87, N-[1-Carboxy-2-(1H-indol-3-yl)-ethyl]-3-(2-mercapto-acetylamino)-succinamic acid]",600
10,"O=C(O)C[C@@H](NC(=O)[C@@H](S)Cc1ccccc1)C(=O)N[C@@H](Cc1c[nH]c2ccccc12)C(=O)O [Example 112, N-[1-Carboxy-2-(1H-indol-3-yl)-ethyl]-3-(2-mercapto-3-phenyl-propionylamino)-succinamic acid]",15
11,"O=C(O)C[C@H](NC(=O)[C@@H](S)CO)C(=O)N[C@@H](Cc1c[nH]c2ccccc12)C(=O)O [Example 93, N-[1-Carboxy-2-(1H-indol-3-yl)-ethyl]-3-(3-hydroxy-2-mercapto-propionylamino)-succinamic acid]",48
12,"O=C(O)C[C@H](NC(=O)[C@@H](S)Cc1ccccc1)C(=O)N[C@@H](Cc1ccc2ccccc2c1)C(=O)O [Example 106, N-(1-Carboxy-2-naphthalen-2-yl-ethyl)-3-(2-mercapto-3-phenylpropionylamino)-succinamic acid]",6
13,"O=C(O)CC(CC(=O)NO)C(=O)NCCc1ccc(-c2ccc(O)cc2)cc1 (stereo not shown) [Example 140, 3-[2-(4′-Hydroxy-biphenyl-4-yl)-ethylcarbamoyl]4-hydroxycarbamoyl-butyric acid]",360
14,"O=C(O)C[C@H](NC(=O)[C@@H](S)Cc1ccccc1)C(=O)N[C@@H](Cc1ccc(-c2ccccc2)cc1)C(=O)O [Example 110, N-(2-Biphenyl-4-yl-1-Carboxy-ethyl)-3-(2-mercapto-3-phenyl-propionylamino)-succinamic acid]",38
15,"O=C(O)CC(CC(=O)O)C(=O)NCCc1ccc2ccccc2c1 [Example 169, 3-(2-Naphthalen-2-yl-ethylcarbamoyl)-pentanedioic acid]",19000
16,"O=C(O)C[C@H](NC(=O)[C@@H](S)Cc1ccc(-c2ccccc2)cc1)C(=O)N[C@@H](Cc1c[nH]c2ccccc12)C(=O)O [Example 98, 3-(3-Biphenyl-4-yl-2-mercapto-propionylamino)-N-[1-Carboxy-2-(1H-indol-3-yl)-ethyl]-succinamic acid]",8
17,"O=C(O)C[C@H](NC(=O)[C@@H](S)Cc1ccc(F)cc1)C(=O)N[C@@H](Cc1c[nH]c2ccccc12)C(=O)O [Example 100, N-[1-Carboxy-2-(1H-indol-3-yl)-ethyl]-3-[3-(4-fluoro-phenyl)-2-mercapto-propionylamino]-succinamic acid]",6
18,"O=C(O)C[C@H](NC(=O)[C@@H](S)Cc1ccccc1)C(=O)N[C@@H](CO)C(=O)O [Example 107, N-(1-Carboxy-2-hydroxy-ethyl)-3-(2-mercapto-3-phenyl-propionylamino)-succinamic acid]",170
19,"N#Cc1ccc(-c2ccc(CCNC(=O)C(CC(=O)O)CC(=O)NO)cc2)cc1 (stereo not shown) [Example 130, 3-[2-(4′-Cyano-biphenyl-4-yl)-ethylcarbamoyl]-4-hydroxycarbamoyl-butyric acid]",190
20,"O=C(O)C[C@H](NC(=O)[C@@H](S)Cc1ccc(OCc2ccccc2)cc1)C(=O)N[C@@H](Cc1c[nH]c2ccccc12)C(=O)O [Example 99, 3-(3-(4-Benzyloxy-phenyl)-2-mercapto-propionylamino)-N-[1-Carboxy-2-(1H-indol-3-yl)-ethyl]-succinamic acid]",8
21,"O=C(O)CC(CCC(=O)NO)C(=O)NCCc1ccc(-c2ccccc2)cc1 (stereo not shown) [Example 152, 3-(2-Biphenyl-4-yl-ethylcarbamoyl)-5-hydroxycarbamoyl-pentanoic acid]",1300
22,"CNC(=O)[C@H](Cc1c[nH]c2ccccc12)NC(=O)[C@H](CC(=O)O)NC(=O)CS [Example 115, N-[2-(1H-indol-3-yl)-methylcarbamoyl-ethyl]-3-(2-mercapto-acetylamino)-succinamic acid]",1300
23,"O=C(O)CC(CC(=O)NO)C(=O)NCCCCc1ccccc1 (stereo not shown) [Example 134, 4-Hydroxycarbamoyl-3-(4-phenyl-butylcarbamoyl)-butyric acid]",560
24,"O=C(O)C[C@H](NC(=O)[C@@H](S)Cc1ccccc1)C(=O)N[C@@H](Cc1c[nH]c2ccccc12)C(=O)N[C@@H](CO)C(=O)O [Example 116, N-[1-(1-Carboxy-2-hydroxy-ethylcarbamoyl)-2-(1H-indol-3-yl)-ethyl]-3-(2-mercapto-3-phenyl-propionylamino)-succinamic acid]",4
25,"O=C(O)C[C@H](NC(=O)[C@@H](S)Cc1ccccc1)C(=O)N[C@@H](Cc1ccc(O)cc1)C(=O)O [Example 108, N-[1-Carboxy-2-(4-hydroxy-phenyl)-ethyl]-3-(2-mercapto-3-phenyl-propionylamino)-succinamic acid]",7
